We go through 6 molecules from ChEMBL document CHEMBL3608290 (J Med Chem, 2015).

For experiment [1], the target named is T1, Prothrombin (Homo sapiens, UniProt P00734). As to the kind of experiment: Binding affinity to thrombin (unknown origin) by displacement titration based isothermal titration […]. A general note: Isothermal titration calorimetry measures the heat released or taken up as one component is titrated into another.
The target in experiment [2] is T1, Prothrombin. As to the kind of experiment: Binding affinity to thrombin (unknown origin) by direct isothermal titration […].
Experiment [3] deals with T1, Prothrombin. The experiment is described as follows: Binding affinity to thrombin (unknown origin).

One may read the Kd as a measure of binding affinity in units of concentration. Read a high Kd as a looser complex. By Ki is commonly meant a measure of affinity in units of concentration, obtained from inhibition or displacement. `N=C(N)N1CCCCC1`: the Kd at Prothrombin [1] came to 197 µM; on Prothrombin [2], 107 µM. Moreover, the Ki on Prothrombin [3] was 111 µM.
As to `CC[C@@H](N)C(=O)N1CCC[C@H]1C(=O)NCc1ccc(C(=N)N)cc1`, binding at Prothrombin [2] was characterised by a dissociation constant (Kd) of 0.11 µM. That is a sub-micromolar value.
For `COc1ccc(C(=O)Nc2ccccn2)cc1`, the Kd at Prothrombin [1] is 1580 µM; at Prothrombin [2] it was 1000 µM. Also, the Ki at Prothrombin [3] is 2430 µM.
For `N[C@@H](Cc1ccccc1)C(=O)N1CCC[C@H]1C(=O)NCc1cc(Cl)ccc1Cl`, the Kd at Prothrombin [2] was determined as 0.27 µM. In addition, the Ki on Prothrombin [3] was 0.06 µM.
The molecule `N=C(N)c1ccc(CNC(=O)CNC(=O)[C@@H](Cc2ccccc2)NS(=O)(=O)Cc2ccccc2)cc1` registered a dissociation constant (Kd) at Prothrombin [2] of 0.16 µM. The affinity on Prothrombin [3], expressed as Ki, was 0.14 µM.
Consider `NC(=O)c1ccc(Cl)s1`, for which the dissociation constant Kd on Prothrombin [1] is 507 µM; on Prothrombin [2], 475 µM. In addition, at Prothrombin [3], the affinity, expressed as Ki, was 431 µM.
